How the values were obtained:
Type in all cases: cell-based
U2OS or MCF7 cells = assay: Cell survival assay, YW-1842 alone; conditions: concentration below 5 μM/L
Protocol: FIGS. 6F-6G show TRDMT1 inhibitor YW-1842 delays the repair of DSBs at the transcribed genome. (FIG. 6F) U2OS or MCF7 cells were treated with or without compound YW-1842 at the indicated concentration. The survival rate of these cells was shown (n=3, Mean±SD). (FIG. 6G) SCE WT cells were transfected with TA-KR and were cultured with […] YW-1842 or not for 6 hours, γ-H2AX (n=3, 50 cells per replicated, Mean±SD) were stained and quantified.
(§1) Approximately 500 U2OS/TRDMT1 KO U2OS/MCF-7/HCC1954/HCC1937 cells and TRDMT1 siRNA or GFP-TRDMT1 WT/G155V/K251R transfected cells were seeded in 6 cm dish with or without TRDMT1 inhibitors (2.5 μM/L). 6 hrs after seeding, cells were exposed to cisplatin (1134357, Sigma, 1 μM/L), ATMi (KU55933, C9867, Sigma, 1 μM/L), ATRi (AZ20, 57050, Selleck, 1 μM/L) or PARPi (Olaparib, AZD2461, Sigma, 1 μM/L) at indicated concentration or ionizing radiation (IR). After 7-14 days, colonies were fixed and stained with 0.3% crystal violet in methanol, and the number of colonies was counted manually.

U2OS (EJ5-GFP) cells = assay: EJ5-GFP NHEJ reporter assay; conditions: 2.5 μM/L, 6 h pre-treatment, TRDMT1 wild type cells
Protocol: (§2) FIGS. 6A-6E show TRDMT1 Inhibitors specifically sensitizes cells to DNA damage agents. (FIG. 6A) SCE WT cells were transfected with TA-KR and were cultured with 2.5 μM/L compound YW-1842 or not for 6 hours, m^5C (n=3, 50 cells per replicated, Mean±SD) was stained and quantified. DR-GFP (FIG. 6B) or EJ5-GFP (FIG. 6C) cells were pre-treated with 2.5 μM/L compound YW-1842 for 6 h or TRDMT1 siRNA for 48 h, or DMSO. Then the cells were transfected with NLS-I-SceI plasmid to induce DSB. The efficiency of HR (FIG. 6B) or NHEJ (FIG. 6C) was analyzed by flow-cytometry (n=3, Mean f SD). (FIG. 6D) After seeding, MCF-7, HCC1954, and HCC1937 cells were pre-treated with or without 2.5 μM/L compound YW-1842 for 6 h, then cultured with chemotherapy drugs (1 μM/L Cisplatin; 1 μM/L ATRi AZ20; […]; 1 μM/L PARPi Olaparib for 10 days. The survival rate of these cells was analyzed (n=3, Mean±SD). (FIG. 6E) TRDMT1 KO U2OS cells were transfected with GFP-TRDMT1^WT or GFP-TRDMT1^G155V with or without 2.5 μM/L compound YW-1842, the survival rate of these cells after IR or Cisplatin was shown (n=3, Mean±SD).
Using a previously described method[Lan, L. et al. The ACF1 complex is required for DNA double-strand break repair in human cells. […] The GFP signal arising from the recombination (HR) or non-homologous end joining (NHEJ) events were measured by flow cytometry.

[1] = system: MCF-7, HCC1954, and HCC1937 cells; assay: Cell survival assay, YW-1842 with DNA damaging agents, IR or H2O2
Protocol: as §2
MCF-7, HCC1954, and HCC1937 cells were pre-treated with or without TRDMT1 inhibitor YW-1842 (2.5 μM) for 6 hrs, then the cells were exposed to IR or H2O2, and cultured for 7-14 days. The survival rate of these cells was analyzed (n=3, Mean±SD)
as §1

TRDMT1 KO U2OS cells = assay: Cell survival assay in TRDMT1 KO cells after IR or Cisplatin; conditions: 2.5 μM/L
Protocol: as §2
Approximately 500 U2OS/TRDMT1 KO U2OS/MCF-7/HCC1954/HCC1937 cells and TRDMT1 siRNA or GFP-TRDMT1 WT/G155V/K251R transfected cells were seeded in 6 cm dish with or without TRDMT1 inhibitors (2.5 μM/L). […]

[2] = system: HST578, MBAMD231, HCC1937, HCC1954 cancer cells; assay: Cell survival assay, TRDMT1i alone (Example 19)
Protocol: FIGS. 14A-14C show TRDMT1i alone reduce cancer cell survival in a dose-dependent manner. (FIG. 14A) Survival rate of HR proficient (HR+) HST578 cancer cells with and without siBRCA1 and/or TRDMT1i YW-1842 at indicated dose. The survival rate of these cells was analyzed (n=3, Mean±SD). (FIG. 14B) Survival rate of MBAMD231 (HR+) and HCC1937 (HRD) cells. The survival rate of these cells was analyzed (n=3, Mean±SD). (FIG. 14C) Cell survival rate in different cancer cell lines via colony-forming assay with the treatment of Imatinib at indicated dose (n=3, mean+/−S.D.). Cell lines are listed in order with the expression level from SYCP2high to SYCP2low.
Cells were seeded in each 6-cm dish and cultured as described above. They were treated with drugs with indicated dose in medium after seeding. After 7-10 days, colonies were fixed and stained with 0.3% crystal violet in methanol, and the number of colonies was counted manually.

Structure (SMILES): COc1cc2nc(-n3cc(-c4ccc(S(C)(=O)=O)cc4)cn3)nc(-c3ccsc3)c2cc1OC [YW-1842, 6,7-dimethoxy-2-(4-(4-(methylsulfonyl)phenyl)-1H-pyrazol-1-yl)-4-(thiophen-3-yl)quinazoline]
- antiproliferative effect (U2OS or MCF7 cells): did not prohibit cell proliferation
- non-homologous end joining (NHEJ) efficiency (U2OS (EJ5-GFP) cells): no obvious changes
- survival rate in combination with H2O2 ([1]; 2.5 μM, combined with H2O2, versus DMSO): decreased the survival rate of all the three cell lines
- sensitization to DNA damaging agents (survival rate) ([1]; 2.5 μM/L with Cisplatin, ATRi AZ20, ATMi KU55933 or PARPi Olaparib, versus single treatment): sensitizes the cells to above DNA damaging agents
- cell killing by compound alone ([1]; 2.5 μM/L, alone): does not kill cells alone
- synergy with PARPi Olaparib ([1]; YW-1842 2.5 μM, Olaparib at 1, HCC 1954 cell lines): strong synergy
- sensitization of TRDMT1 KO cells to IR or Cisplatin (TRDMT1 KO U2OS cells): does not sensitize TRDMT1 KO
- sensitivity of HR deficient cells to TRDMT1i alone ([2]; HCC1937 (HRD) versus MBAMD231 (HR+)): more sensitive
- killing of HCC1954 ([2]; HCC1954, HRD, high SYCP2): efficiently killed HCC1954
- cancer cell survival, TRDMT1i alone ([2]; HR-proficient HST578 cells): kills HR-proficient cancer cells HST578 in a dose-dependent manner
- TRDMT1i sensitivity on BRCA1 knockdown ([2]; HST578 cells with siBRCA1): significantly increased TRDMT1i sensitivity
- killing across cancer cell lines by SYCP2 level and HR status ([2]; cell lines ordered SYCP2high to SYCP2low (FIG. 14C)): killed SYCP2-high cancer cell lines and HR deficient cells the most efficiently

Reference: patent publication US12667568B2, “Compositions and methods for the treatment and diagnosis of cancer” (The General Hospital Corporation, priority 2020, dated 2026)
